Source: ChEMBL document CHEMBL1828521, “New azole antifungal agents with novel modes of action: synthesis and biological studies of new tridentate ligands based on pyrazole and triazole” (2011)
Active and inactive are the calls of the source. The rule behind the calls is not given here.

How the values were obtained:
Saccharomyces cerevisiae [1] = assay: Antifungal activity against Saccharomyces cerevisiae BY4741 assessed as reduction in cell growth at 1 mM; assay type: functional, organism-based
Saccharomyces cerevisiae [2] = assay: Antifungal activity against Saccharomyces cerevisiae BY4741 assessed as increase in unbudded cells at 1 mM (reference value: 38.5%); assay type: functional
Saccharomyces cerevisiae [3] = assay: Antifungal activity against Saccharomyces cerevisiae BY4741 assessed as small budded cells at 1 mM (reference value: 22%); assay type: functional
Saccharomyces cerevisiae [4] = assay: Antifungal activity against Saccharomyces cerevisiae BY4741 assessed as large budded cells at 1 mM (reference value: 39.4%); assay type: functional
Saccharomyces cerevisiae [5] = assay: Cell cycle arrest in Saccharomyces cerevisiae BY4741 assessed as accumulation of cells with […] DNA content at G1 phase at 290 uM for 8 hrs by flow cytometric analysis; assay type: functional, organism-based
Saccharomyces cerevisiae [6] = assay: Cell cycle arrest at G1-phase in Saccharomyces cerevisiae BY4741 assessed as accumulation of […] DNA content at 290 uM after 180 mins by flow cytometric analysis; assay type: functional, organism-based
Saccharomyces cerevisiae [7] = assay: Antifungal activity against wild-type Saccharomyces cerevisiae BY4741 at 1.4 mM by serial dilution method; assay type: functional, organism-based
Saccharomyces cerevisiae [8] = assay: Antifungal activity against xrs2-deficient Saccharomyces cerevisiae BY4741 at 1 to 1.4 mM after 3 days by serial dilution method; assay type: functional, organism-based
Saccharomyces cerevisiae [9] = assay: Antifungal activity against top3-deficient Saccharomyces cerevisiae BY4741 at 1 to 1.4 mM after 3 days by serial dilution method; assay type: functional, organism-based
Saccharomyces cerevisiae [10] = assay: Antifungal activity against ski2-deficient Saccharomyces cerevisiae BY4741 at 1 to 1.4 mM after 3 days by serial dilution method; assay type: functional, organism-based
Saccharomyces cerevisiae [11] = assay: Antifungal activity against Saccharomyces cerevisiae BY4741 expressing Rad52-GFP assessed as appearance of Rad52 foci by epifluorescence microscopy; assay type: functional, organism-based
Saccharomyces cerevisiae [12] = assay: Antifungal activity against Saccharomyces cerevisiae BY4741 expressing Rad52-GFP assessed as increase in appearance of Rad52 foci in G1 phase by epifluorescence microscopy; assay type: functional, organism-based
Saccharomyces cerevisiae [13] = assay: Antifungal activity against Saccharomyces cerevisiae BY4741 expressing Rad52-GFP assessed as increase in appearance of Rad52 foci in S-phase by epifluorescence microscopy; assay type: functional, organism-based
Saccharomyces cerevisiae [14] = assay: Antifungal activity against Saccharomyces cerevisiae BY4741 expressing Rad52-GFP assessed as increase in appearance of Rad52 foci in G2/M phase by epifluorescence microscopy; assay type: functional, organism-based
Saccharomyces cerevisiae [15] = assay: Antifungal activity against Saccharomyces cerevisiae BY4741 assessed as inhibition of replication at 1 mM; assay type: functional, organism-based
Saccharomyces cerevisiae [16] = assay: Induction of cell cycle arrest at G1-phase in Saccharomyces cerevisiae BY4741 assessed as accumulation of 1C DNA content at 1 mM after 180 mins by flow cytometric analysis; assay type: functional, organism-based
Saccharomyces cerevisiae [17] = assay: Induction of cell cycle arrest at G1-phase in Saccharomyces cerevisiae BY4741 at 1 mM after 180 mins by flow cytometric analysis; assay type: functional, organism-based
Saccharomyces cerevisiae [18] = assay: Antifungal activity against xrs2-deficient Saccharomyces cerevisiae BY4741 at 0.85 to 1.14 mM after 3 days by serial dilution method; assay type: functional, organism-based
Saccharomyces cerevisiae [19] = assay: Antifungal activity against top3-deficient Saccharomyces cerevisiae BY4741 at 0.85 to 1.14 mM after 3 days by serial dilution method; assay type: functional, organism-based
Saccharomyces cerevisiae [20] = assay: Antifungal activity against ski2-deficient Saccharomyces cerevisiae BY4741 at 0.85 to 1.14 mM after 3 days by serial dilution method; assay type: functional, organism-based
Saccharomyces cerevisiae [21] = assay: Antifungal activity against PKC1-deficient Saccharomyces cerevisiae BY4741 by Haploinsufficiency-profiling assay; assay type: functional, organism-based
Saccharomyces cerevisiae [22] = assay: Antifungal activity against wild-type Saccharomyces cerevisiae BY4741 at 1.14 mM after 3 days by serial dilution method; assay type: functional, organism-based

SMILES: CCN(CC)CCCN(Cn1nc(C)cc1C)Cn1nc(C)cc1C
- Activity (Saccharomyces cerevisiae [1]): Active
- Activity (Saccharomyces cerevisiae [2]): 51.5%
- Activity (Saccharomyces cerevisiae [3]): 9.7%
- Activity (Saccharomyces cerevisiae [4]): 38.7%
- Activity (Saccharomyces cerevisiae [5]): Active
- Activity (Saccharomyces cerevisiae [6]): Active
- Activity (Saccharomyces cerevisiae [7]): inactive
- Activity (Saccharomyces cerevisiae [8]): Active
- Activity (Saccharomyces cerevisiae [9]): Active
- Activity (Saccharomyces cerevisiae [10]): Active
- Activity (Saccharomyces cerevisiae [11]): Active
- Activity (Saccharomyces cerevisiae [12]): Active
- Activity (Saccharomyces cerevisiae [13]): Active
- Activity (Saccharomyces cerevisiae [14]): Active

SMILES: Cc1cc(C)n(CO)n1
- Activity (Saccharomyces cerevisiae [1]): Active

SMILES: CCN(CC)CCCN(Cn1cncn1)Cn1cncn1
- Activity (Saccharomyces cerevisiae [1]): Active
- Activity (Saccharomyces cerevisiae [11]): Active
- Activity (Saccharomyces cerevisiae [12]): Active
- Activity (Saccharomyces cerevisiae [13]): Active
- Activity (Saccharomyces cerevisiae [14]): Active
- Activity (Saccharomyces cerevisiae [15]): Active
- Activity (Saccharomyces cerevisiae [16]): Active
- Activity (Saccharomyces cerevisiae [17]): Active
- Activity (Saccharomyces cerevisiae [18]): Active
- Activity (Saccharomyces cerevisiae [19]): Active
- Activity (Saccharomyces cerevisiae [20]): Active
- Activity (Saccharomyces cerevisiae [21]): Active
- Activity (Saccharomyces cerevisiae [22]): inactive

SMILES: Cc1cc(C)[nH]n1
- Activity (Saccharomyces cerevisiae [1]): inactive
